# Measurements as given in patent publication US20120171123A1, “USES AND COMPOSITIONS FOR TREATMENT OF RHEUMATOID ARTHRITIS” (priority 2006, published 2012).
# “And” between values parts separate entries of the source, which are not always exact repeats. Equal entries are not always repeated.
# System: patients with active rheumatoid arthritis
# Experiment: Study A: EULAR response (moderate/good)
# Format: in vivo, human
# Conditions: for Good EULAR response (%) / Moderate EULAR response (%): LOCF
# Text: In one embodiment, the invention provides a method for determining the efficacy of a TNFα inhibitor, including a human TNFα antibody, for treating RA in a subject, using the EULAR response of a subject or patient population. European League Against Rheumatism (EULAR) Response Criteria uses a Disease Activity Score (DAS) for defining response. To be classified as responders, patients should have a significant change in DAS and also low current disease activity. Response is defined as both: (a) change in disease activity from baseline and (b) the level of disease activity reached during follow-up. Criteria used to define DAS include: Ritchie articular index, swollen joint count (44-joint count), erythrocyte sedimentation rate, and […]. A modified version of the DAS criteria, DAS28, uses a 28-joint count for swollen and tender joints. Response is defined as a combination of a significant change from baseline and the level of disease activity attained. Good response is defined as a significant decrease in DAS (>1.2) and a low level of disease activity (< or =2.4). Non-response is defined as a decrease < or =0.6, or a decrease >0.6 and < or =1.2 with an attained DAS >3.7. Any other scores are regarded as moderate responses. Thus, three categories are defined: good, moderate, and non-responders. For details of EULAR criteria see Van Gestel et al. (1996) 39(1):34-40, incorporated by reference herein.
# The study design included a 12 week open label treatment period followed by a continuation period examining safety and efficacy. […] The main inclusion criteria for the study were the following: males and females ≧18 years; rheumatoid arthritis (RA; defined by ACR criteria) for ≧3 months; unsatisfactory response (or intolerance) to at least one prior DMARD; and patients with active RA (DAS28≧3.2). Baseline demographics and disease severity is shown below in Table 1:
# Efficacy of adalimumab treatment was determined by examining signs and symptoms of the patients. Various assays were used to determine efficacy, including ACR response, EULAR response, TJC and SJC count, and DAS28.
# The objective of this study was to evaluate the impact of prior biologic therapies, in particular TNF-antagonists etanercept (ETA) and infliximab (INF), on key efficacy parameters of adalimumab therapy in patients with long-standing RA in clinical practice. To evaluate the impact of prior biological therapies, patients with moderate to severe RA enrolled at 450 sites in 11 European countries plus Australia (Study A). Patients with moderate to severe RA and an inadequate response to prior DMARD therapies were enrolled in a 12-week open-label study with an optional extension phase. […] Patients with previous biologic treatment must have received the last administration at least 8 weeks before enrollment Routine safety and efficacy data were collected at weeks 2, 6, and 12, and every 8 weeks in the extension phase. Efficacy parameters included ACR20, ACR50, ACR70, EULAR Response, HAQ, tender and swollen joint count (TJC28/SJC28), and DAS28. […] For this interim analysis, efficacy outcomes were evaluated after 12 weeks of therapy per the number and type of prior biologics used: None, any (ETA, INF, anakinra), ETA only, INF only, or ETA and INF but not anakinra.
# Patients with long-standing, moderate to severe RA were enrolled in Study A at 450 sites in 12 different countries. The study design for Study A is outlined in FIG. 21. […] Previous treatment with other biologics was allowed up to 8 weeks before enrollment. Patients met the following inclusion criteria: Age ≧18 years; RA (defined by American College of Rheumatology criteria) for ≧3 months; active, moderate to severe RA (Disease Activity Score (DAS28)≧3.2); unsatisfactory response or intolerance to at least one prior DMARD, including biologics. Efficacy assessments were performed at weeks 0 (baseline), 2, 6, and 12. […]
# [1] = Week 12, No prior ETA and/or INF (n=5711)
# [2] = Week 12, Prior ETA and/or INF (n=899)
# [3] = Week 12, concomitant Cq/Hcq + mtx (n=153)
# [4] = Week 12, concomitant LEF only (n=557)
# [5] = Week 12, concomitant MTX + LEF (n=123)
# [6] = Week 12, concomitant MTX only (n=1561)
# [7] = Week 12, concomitant QC/HQC (n=85)
# [8] = Week 12, concomitant SSZ only (n=89)
# [9] = Wk 12, concomitant MTX Im 15 mg (N=76), no other DMARD
# [10] = Wk 12, concomitant MTX Iv 15 mg (N=23), no other DMARD
# [11] = Wk 12, concomitant MTX Sc 15 mg (N=37), no other DMARD
# [12] = Wk 12, concomitant MTX oral 15 mg (N=405), no other DMARD
# [13] = Wk 12, concomitant MTX oral ≦7.5 (N=127), no other DMARD
# [14] = Wk 12, concomitant MTX oral ≧20 mg (N=216), no other DMARD
# [15] = week 12, concomitant hydroxychloroquine exclusively
# [16] = week 12, concomitant leflunomide exclusively
# [17] = week 12, concomitant mtx exclusively
# [18] = week 12, concomitant sulfasalazine exclusively
# [19] = week 12, prior biologic: ETA + INF
substance,measurement,setting,value
"adalimumab: human anti-TNF mAb (HUMIRA, Abbott Laboratories), described in U.S. Pat. No. 6,090,382 as D2E7",Good EULAR response,"12 weeks, N=2008 analysis",34%
same,Moderate EULAR response,"12 weeks, N=2008 analysis",82%
same,Moderate EULAR response,"12 weeks, no prior response to ETA and INF",50%
same,Good EULAR response (%),Week 12,32%
same,Moderate EULAR response (%),Week 12,81%
same,Good EULAR,[1],35 % of patients
same,Moderate EULAR,[1],84 % of patients
same,Good EULAR,[2],23 % of patients
same,Moderate EULAR,[2],76 % of patients
same,Good EULAR,[3],40 % of patients
same,Moderate EULAR,[3],88 % of patients
same,Good EULAR response,[4],31%
same,Moderate EULAR response,[4],79%
same,Good EULAR response,[5],29%
same,Moderate EULAR response,[5],86%
same,Good EULAR response,"Week 12, concomitant MTX + SSZ",41%
same,Moderate EULAR response,"Week 12, concomitant MTX + SSZ",89%
same,Good EULAR response,[6],39%
same,Moderate EULAR response,[6],84%
same,Good EULAR response,[7],25%
same,Moderate EULAR response,[7],85%
same,Good EULAR response,[8],39%
same,Moderate EULAR response,[8],75%
same,Good EULAR response (%),Week 28,37%
same,Moderate EULAR response (%),Week 28,81%
same,Good EULAR response (%),Week 36,37%
same,Moderate EULAR response (%),Week 36,82%
same,Good EULAR response (%),Week 52,38%
same,Moderate EULAR response (%),Week 52,82%
same,Good EULAR response,[9],38%
same,Moderate EULAR response,[9],80%
same,Good EULAR response,[10],41%
same,Moderate EULAR response,[10],86%
same,Good EULAR response,[11],25%
same,Moderate EULAR response,[11],86%
same,Good EULAR response,[12],39%
same,Moderate EULAR response,[12],86%
same,Good EULAR response,[13],36%
same,Moderate EULAR response,[13],84%
same,Good EULAR response,[14],50%
same,Moderate EULAR response,[14],89%
same,at least a Moderate EULAR response,"week 2, French patients",64%
same,Good EULAR response,"week 12, 1 prior biologic",25%
same,Moderate EULAR response,"week 12, 1 prior biologic",78%
same,Good EULAR response,"week 12, 2 prior biologics",11%
same,Moderate EULAR response,"week 12, 2 prior biologics",76%
same,Good EULAR response,"week 12, 3 prior biologics",8%
same,Moderate EULAR response,"week 12, 3 prior biologics",75%
same,at least a Moderate EULAR response,"week 12, French patients",80%
same,Good EULAR response,"week 12, all patients",34%
same,Moderate EULAR response,"week 12, all patients",83%
same,Good EULAR,[15],25 % of patients
same,Moderate EULAR,[15],75 % of patients
same,Good EULAR,[16],31 % of patients
same,Moderate EULAR,[16],79 % of patients
same,Good EULAR,[17],39 % of patients
same,Moderate EULAR,[17],84 % of patients
same,Good EULAR,[18],31 % of patients
same,Moderate EULAR,[18],79 % of patients
same,Good EULAR response,"week 12, no prior biologic",34%
same,Moderate EULAR response,"week 12, no prior biologic",81%
same,Good EULAR,"week 12, prior anakinra",36 % of patients
same,Moderate EULAR,"week 12, prior anakinra",75 % of patients
same,Good EULAR,"week 12, prior biologic (any)",22 % of patients
same,Moderate EULAR,"week 12, prior biologic (any)",77 % of patients
same,Good EULAR response,"week 12, prior etanercept only",25% and 24%
same,Moderate EULAR response,"week 12, prior etanercept only",76%
same,Good EULAR response,"week 12, prior infliximab only",22%
same,Moderate EULAR response,"week 12, prior infliximab only",80%
same,Good EULAR,"week 12, prior biologic: Any",23 % of patients
same,Moderate EULAR,"week 12, prior biologic: Any",75 % of patients
same,Good EULAR,"week 12, prior biologic: ETA",21 % of patients
same,Moderate EULAR,"week 12, prior biologic: ETA",74 % of patients
same,Good EULAR,[19],12 % of patients
same,Moderate EULAR,[19],61 % of patients
same,Good EULAR,"week 12, prior biologic: INF",25 % of patients
same,Moderate EULAR,"week 12, prior biologic: INF",78 % of patients
same,Good EULAR,"week 12, prior biologic: None",39 % of patients
same,Moderate EULAR,"week 12, prior biologic: None",82 % of patients
